Like-named read-outs stand apart in the source and are kept apart here.
Columns and labels:
[1] = logP (HPLC-MS); format: physicochemical
[2] = tested on: Phaedon cochleariae; assay: Phaedon test (PHAECO spray treatment); format: in vivo; conditions: Chinese cabbage leaf discs, after 7 days
Description: Phaedon Test ([…] Spray Treatment) Solvent: 78.0 parts by weight of acetone • • 1.5 parts by weight of dimethylformamide Emulsifier: 0.5 part by weight of alkylaryl polyglycol ether To produce an appropriate active ingredient formulation, 1 part by weight of active ingredient is mixed with the stated amounts of solvent and emulsifier, and the concentrate is diluted with emulsifier-containing water to the desired concentration. Leaf discs of Chinese cabbage (Brassica pekinensis) are sprayed with an active ingredient formulation of the desired concentration and, after drying, populated with larvae of the mustard beetle (Phaedon cochleariae). After 7 days, the efficacy in % is determined. 100% means that all of the beetle larvae have been killed; 0% means that none of the beetle larvae have been killed.

[3] = tested on: Tetranychus urticae; assay: Tetranychus test, OP-resistant (TETRUR spray treatment); format: in vivo; conditions: bean leaf discs, after 6 days
Description: Tetranychus Test, OP-Resistant (TETRUR Spray Treatment)
Solvent: 78.0 parts by weight of acetone • • 1.5 parts by weight of dimethylformamide
Emulgator: 0.5 part by weight of alkylaryl polyglycol ether
To produce an appropriate active ingredient formulation, 1 part by weight of active ingredient is mixed with the stated amounts of solvent and emulsifier, and the concentrate is diluted with emulsifier-containing water to the desired concentration.
Discs of bean leaves (Phaseolus vulgaris) infested by all stages of the red spider mite (Tetranychus urticae) are sprayed with an active ingredient formulation of the desired concentration.
After 6 days, the efficacy in % is determined. 100% means that all of the spider mites have been killed; 0% means that none of the spider mites have been killed.

[4] = tested on: Spodoptera frugiperda; assay: Spodoptera frugiperda test (SPODFR spray treatment); format: in vivo; conditions: maize leaf discs, after 7 days
Description: Spodoptera frugiperda Test (SPODFR Spray Treatment) Solvent: 78.0 parts by weight of acetone • • 1.5 parts by weight of dimethylformamide To produce an appropriate active ingredient formulation, 1 part by weight of active ingredient is mixed with the stated amounts of solvent and emulsifier, and the concentrate is diluted with emulsifier-containing water to the desired concentration. Leaf discs of maize (Zea mays) are sprayed with an active ingredient formulation of the desired concentration and, after drying, populated with caterpillars of the armyworm (Spodoptera frugiperda). After 7 days, the efficacy in % is determined 100% means that all of the caterpillars have been killed; 0% means that none of the caterpillars have been killed.

[5] = HPLC, reversed-phase column (C18), acidic range pH 2.7, acetonitrile (0.1% formic acid)/water gradient, 43° C., calibration with unbranched alkan-2-ones
[6] = HPLC, reversed-phase column (C18), 43° C., acidic range pH 2.7, EEC directive 79/831 Annex V.A8, two values = both regioisomers (G = N)

log p [1, 5] | SMILES | efficacy in % ([3]; application rate 100 g/ha) [%] | efficacy in % ([4]; application rate 100 g/ha) [%] | efficacy in % ([2]; application rate 100 g/ha) [%] | also measured
3.31 | Cn1c(C(=O)NC(c2cccc(Cl)c2)C(F)(F)F)cc2cc(C(=O)NC3(C#N)CC3)c(Cl)cc21 (stereo not drawn) [Compound 46] | 100 | – | 100 | –
4.14 | CCn1c(C(=O)NC(c2cc(Cl)cc(Cl)c2)C(F)(F)F)cc2cc(C(=O)NC3(C#N)CC3)c(Cl)cc21 (stereo not drawn) [Compound 43] | 100 | 100 | 100 | –
3.41 | C#CCn1c(C(=O)NC(c2ccc(F)c(Cl)c2)C(F)(F)F)cc2cc(C(=O)NC3(C#N)CC3)c(Cl)cc21 (stereo not drawn) [Compound 64] | 100 | 100 | 100 | –
3.72 | CCn1c(C(=O)NC(c2cccc(C(F)(F)F)c2)C(F)(F)F)cc2cc(C(=O)NC(C)C#N)c(Cl)cc21 (stereo not drawn) [Compound 9] | 90 | 100 | 100 | –
4.03 | N#CC1(NC(=O)c2cc3cc(C(=O)NC(c4cccc(C(F)(F)F)c4)C(F)(F)F)n(C4CCC4)c3cc2Cl)CC1 (stereo not drawn) [Compound 274] | – | – | – | efficacy in % ([2]; application rate 500 g/ha): 100%; efficacy in % ([3]; application rate 500 g/ha): 100%; efficacy in % ([4]; application rate 500 g/ha): 100%

Continued, compound first:

SMILES | log p [1, 5] | efficacy in % ([3]; application rate 100 g/ha) [%] | efficacy in % ([4]; application rate 100 g/ha) [%] | efficacy in % ([2]; application rate 100 g/ha) [%] | also measured
CCn1c(C(=O)NC(c2cccc(C(F)(F)F)c2)C(F)(F)F)c(C#N)c2cc(C(=O)NC3(C#N)CC3)c(Cl)cc21 (stereo not drawn) [Compound 279, 6-chloro-3-cyano-N5-(1-cyanocyclopropyl)-1-ethyl-N2-{2,2,2-trifluoro-1-[3-(trifluoromethyl)phenyl]ethyl}-1H-indole-2,5-dicarboxamide] | – | 100 | 100 | – | chromatographic logP ([1]; HPLC, reversed-phase column (C18), 43° C., acidic range pH 2.7, EEC directive 79/831 Annex V.A8, two values = both regioisomers (G = N), read-out: log p): 3.45; chromatographic logP ([1]; HPLC-MS): 3.45; pest or weed control at 100 g/ha ([2]; Phaedon cochleariae, foliar, 168 h, application rate 100 g/ha, read-out: efficacy in %): 100%
C#CCn1c(C(=O)NC(c2cccc(OC(F)F)c2)C(F)(F)F)cc2cc(C(=O)NC3CC3)c(Cl)cc21 (stereo not drawn) [Compound 278] | 3.32 | 90 | 100 | 100 | –
CCOCn1c(C(=O)NC(c2cccc(C(F)(F)F)c2)C(F)(F)F)cc2cc(C(=O)NC3(C#N)CC3)c(Cl)cc21 (stereo not drawn) [Compound 287] | – | 100 | 100 | 100 | log p [1, 6]: 3.70
CCn1c(C(=O)NC(c2cc(Cl)cc(Cl)c2)C(F)(F)F)nc2cc(C(=O)NC3CC3)c(Cl)cc21 (stereo not drawn) [Compound 317] | – | – | – | – | efficacy in % ([2]; application rate 500 g/ha): 100%; efficacy in % ([3]; application rate 500 g/ha): 100%; efficacy in % ([4]; application rate 500 g/ha): 100%
CCn1c(C(=O)NC(c2cccc(Cl)c2)C(F)(F)F)cc2cc(C(=O)NC3CC3)c(C)cc21 (stereo not drawn) [Compound 184] | 3.57 | 100 | 100 | 100 | –
CCn1c(C(=O)NC(c2cccc(Cl)c2)C(F)(F)F)cc2cc(C(=O)NC3(C#N)CC3)c(C)cc21 (stereo not drawn) [Compound 185] | 3.58 | 100 | 100 | 100 | –
Cn1c(C(=O)NC(c2ccc(F)c(Cl)c2)C(F)(F)F)cc2cc(C(=O)NC3CC3)c(Cl)cc21 (stereo not drawn) [Compound 53] | 3.42 | 100 | 100 | 100 | –
N#CC1(NC(=O)c2cc3cc(C(=O)NC(c4cccc(C(F)(F)F)c4)C(F)(F)F)n(CC4CC4)c3cc2Cl)CC1 (stereo not drawn) [Compound 272] | 4.03 | 100 | 100 | 100 | –
CCn1c(C(=O)NC(c2ccc(Cl)c(Cl)c2)C(F)(F)F)cc2cc(C(=O)NC3CC3)c(C)cc21 (stereo not drawn) [Compound 297] | – | 100 | 100 | 100 | log p [1, 6]: 3.99
CCn1c(C(=O)NC(c2cccc(C(F)(F)F)c2)C(F)(F)F)nc2cc(C(=O)NC3CC3)c(Cl)cc21 (stereo not drawn) [Compound 4, 6-chloro-N^5-cyclopropyl-1-ethyl-N^2-{2,2,2-trifluoro-1-[3-(trifluoromethyl)phenyl]ethyl}-1H-benzimidazole-2,5-dicarboxamide] | – | – | – | – | chromatographic logP ([1]; HPLC, reversed-phase column (C18), acidic range pH 2.7, acetonitrile (0.1% formic acid)/water gradient, 43° C., calibration with unbranched alkan-2-ones, read-out: log p): 3.67; chromatographic logP ([1]; HPLC-MS): 3.71; pest or weed control at 500 g/ha ([2]; Phaedon cochleariae, foliar, 168 h, application rate 500 g/ha, read-out: efficacy in %): 100%; efficacy in % ([3]; application rate 500 g/ha): 100%; efficacy in % ([4]; application rate 500 g/ha): 100%
CCn1c(C(=O)NC(c2cccc(C(F)(F)F)c2)C(F)(F)F)cc2cc(C(=O)NCCC#N)c(Cl)cc21 (stereo not drawn) [Compound 263] | 3.53 | 100 | 100 | 100 | –
CCn1c(C(=O)NC(c2ccc3c(c2)OC(F)(F)O3)C(F)(F)F)cc2cc(C(=O)NC3(C#N)CC3)c(C)cc21 (stereo not drawn) [Compound 308] | – | 90 | 100 | 100 | log p [1, 6]: 3.80
N#CC1(NC(=O)c2cc3cc(C(=O)NC(c4cccc(C(F)(F)F)c4)C(F)(F)F)n(COCc4ccccc4)c3cc2Cl)CC1 (stereo not drawn) [Compound 286] | – | 100 | – | 100 | log p [1, 6]: 4.17
N#CC1(NC(=O)c2cc3cc(C(=O)NC(c4cccc(C(F)(F)F)c4)C(F)(F)F)n(Cc4ccccc4)c3cc2Cl)CC1 (stereo not drawn) [Compound 284] | – | 100 | 100 | 100 | log p [1, 6]: 4.07
C#CCn1c(C(=O)NC(c2cc(Cl)cc(Cl)c2)C(F)(F)F)cc2cc(C(=O)NC3CC3)c(Cl)cc21 (stereo not drawn) [Compound 65] | 3.90 | 100 | 100 | – | –
C#CCn1c(C(=O)NC(c2cccc(Br)c2)C(F)(F)F)cc2cc(C(=O)NC3CC3)c(Cl)cc21 (stereo not drawn) [Compound 59] | 3.44 | 100 | 100 | – | –
Cn1c(C(=O)NC(c2cccc(Br)c2)C(F)(F)F)cc2cc(C(=O)NC3CC3)c(Cl)cc21 (stereo not drawn) [Compound 47] | 3.42 | 90 | – | 100 | –
N#CCn1c(C(=O)NC(c2cccc(C(F)(F)F)c2)C(F)(F)F)cc2cc(C(=O)NC3(C#N)CC3)c(Cl)cc21 (stereo not drawn) [Compound 294] | – | – | – | 100 | log p [1, 6]: 3.30; efficacy in % ([3]; application rate 500 g/ha): 100%
CCn1c(C(=O)NC(c2cccc(C(F)(F)F)c2)C(F)(F)F)cc2cc(C(=O)NC3(CC)CC3)c(Cl)cc21 (stereo not drawn) [Compound 30] | 4.45 | – | 83 | 100 | –
CCn1c(C(=O)NC(c2cccc(C(F)(F)F)c2)C(F)(F)F)cc2cc(CNC(=O)C3CC3)c(Cl)cc21 (stereo not drawn) [Compound 24] | 4.19 | – | 100 | 100 | –

From patent US9107411B2, “Indolecarboxamides and benzimidazolecarboxamides as insecticides and acaricides” (BAYER INTELLECTUAL PROPERTY GMBH, priority 2011, dated 2015)
